Assay [1] has as its system leukemia and myeloma cell lines. The following applies: leukemia and myeloma cell lines (Xu et al., 2010); cited from earlier work.
Assay [2] has as its system mouse acute myeloid leukemia (AML model). The following applies: mouse AML model (Xu et al., 2010); cited from earlier work.
The subject of a further assay is PHTX-24C colon xenograft. The assay is described as follows: PHTX-24C xenograft model, Compound 1 and oxaliplatin. The assay is classed as in vivo, CB-17 SCID mice. Here is the method:
(§1) Oxaliplatin (Jiang Su Geng Rui Pharmaceuticals, Inc.) is formulated in 0.9% saline and administered by IP injection once weekly (QW) at 7.5 or 12.5 mg/kg. The once weekly schedule is also described as every 7 days (Q7D).
(§2) Compound 1 [((1R,2R,3S,4R)-2,3-dihydroxy-4-(2-(3-(trifluoromethylthio)-phenyl)pyrazolo[1,5-a]pyrimidin-7-ylamino)cyclopentyl)methyl sulfamate] is formulated in 10-20% HPbCD in sterile water and administered intravenously (IV) or subcutaneously (SC) on a BIW (twice/week schedule; Monday and Thursday or Tuesday and Friday) for either 2-4 weeks.
(§3) Tumors were measured twice weekly using vernier calipers. Tumor volumes were calculated using the standard formula V=W^2×L/2,). When mean tumor volumes reached approximately 200 mm^3 for PHTX-24C, 220 mm^3 for PHTX-Lu132, 150 mm^3 for CTG-0256, 260 mm^3 for CTG-0486, 185 mm^3 for PHTX-17C, 260 mm^3 for CTG-0165, 150 mm^3 for PHTX-14B in the study of Compound 1 and paclitaxel, 180 mm^3 for PHTX-14B in the study of Compound 1 and docetaxel, 200 mm^3 for SKOV-3, 220 mm^3 for PHTX-02B in the study of Compound 1 and docetaxel, 250 mm^3 for PHTX-02B in the study of Compound 1 and paclitaxel, 195 mm^3 for CTG-0159, 180 mm^3 for CTG-0012 or 150 mm^3 for Calu-6, mice were randomized into groups of n=5-7/arm as described in the tables below, and injected with vehicle, Compound 1 or agents (docetaxel, paclitaxel, oxaliplatin, cisplatin or carboplatin), or the combination of Compound 1 plus one of the agents, at various doses and schedules as described in tables below. Tumor size and body weight were measured approximately twice a week for the duration of the study. Mice are euthanized when their tumor volume reached 10% of their body weight, or when the average tumor volume of a treatment or control group reached approximately 2000 mm^3. Tumor growth continued to be monitored after the dosing period in some studies. Average tumor volume is reported as a function of time for selected arms of selected studies in the Figures.
(§4) Measurements from day 0 to day 14, day 19, day 21, or day 28 are analyzed as specified in Tables below. All tumor volumes have a value of 1 added to them before log10 transformation. For each animal, the log tumor volume at day 0 is subtracted from the log tumor volume on the subsequent days. This difference vs. time is used to calculate an area under the curve (AUC) for each animal using the trapezoid rule. […] The synergy score for the combination of agents A and B is defined as
(§5) 100*(mean(AUCAB)−mean(AUCA)−mean(AUCB)+mean(AUCctl))/mean(AUCctl):
where AUCAB, AUCA, AUCB, and AUCctl are the AUC values for animals in the combination group, the A group, the B group, and the control group, respectively. […]

Assay [3] concerns PHTX-17C colorectal carcinoma xenograft. The assay is classed as in vivo. The following applies: for Tumor Volume Day 21: in mm³ (unit assumed).
Excerpt: The PHTX-17C colorectal carcinoma xenograft model was established from a patient-derived tumor collected during surgery from a person with moderately differentiated adenocarcinoma.PHTX-17C tumor fragments (approximately 2×2×3 mm^3) were implanted into the subcutaneous space in the right dorsal flank of female nude mice (age 5-7 weeks, Balb/c Nude Mice, Shanghai SINO-British SIPPR/BK Lab Animal Ltd, Shanghai, China) using a 13-gauge trocar. When the mean tumor volume reached approximately 185 mm^3, the animals were randomized into 12 treatment groups (n=5/group).
as §1, §2, §3, §4, §5
where AUCAB, AUCA, AUCB, and AUCctl are the AUC values for animals in the combination group, the A group, the B group, and the control group, respectively. The standard error of the synergy score is computed based on the variation in the AUC values among the animals. […] If the P-value is above 0.05, then the combination is considered to be additive. If the P-value is below 0.05, and the synergy score is less than zero, then the combination is considered to be synergistic.

Consider two compounds from US20180133221A1, “ADMINISTRATION OF UBIQUITIN-ACTIVATING ENZYME INHIBITOR AND CHEMOTHERAPEUTIC AGENTS” (Millennium Pharmaceuticals, Inc., priority 2014, published 2018).

Like-named read-outs stand apart in the source and are kept apart here.

Take `O=C1NN(c2ccc(F)c(Cl)c2)C(=O)/C1=C\c1ccc([N+](=O)[O-])o1` [PYZD-4409]: in assay [1], the cell death result was “induced cell death”. For the same compound, the anti-tumor activity result in assay [2] is reported as “demonstrated anti-tumor activity”.

In the case of `O=C1[O][Pt]2([NH][C@@H]3CCCC[C@H]3[NH]2)[O]C1=O` [oxaliplatin, reference compound], the “Tumor Volume Day 21” value in the assay with PHTX-24C colon xenograft (7.5 mg/kg oxaliplatin Q7Dx2 IP, in mm³ (unit assumed)) came to 720.6; in assay [3] (7.5 mg/kg oxaliplatin Q7Dx3 IP), 2017.5; in assay [3] (12.5 mg/kg oxaliplatin Q7Dx3 IP), 1758.9. Also, the “anti-tumor activity compared to vehicle control” value (in the assay with PHTX-24C colon xenograft (single agent oxaliplatin 7.5 mg/kg IP Q7D); in assay [3] (single agent oxaliplatin IP at 7.5 or 12.5 mg/kg Q7D)) was “modest anti-tumor activity” throughout.
